The subject of test [1] is LMNA^G609G/G609G MEFs. Description: Relative nuclear circularity of MEFs. Type of test: cell-based, mouse. Particulars: 12-day CBD treatment, vs control. On the procedure:
In the step of determining the relative nuclear circularity, the primary mouse embryonic fibroblasts (MEFs) at passage 3 were seeded and cultured in chamber slides. Nuclei were stained using DAPI or LMNA/C antibodies. The fluorescence images were captured using confocal microscopy. The perimeter and area of the individual nucleus were measured using software CellProfiler. Relative nuclear circularity was calculated using the formula: […]
A value of 1 in relative nuclear circularity indicates a perfect circle. Nuclei with relative nuclear circularity closer to 0 indicate they are more irregularly shaped.

Test [2] has as its system liver of LMNA^G609G/G609G mice. The experiment in a line: Senescence-associated beta-galactosidase staining of mouse liver. It counts as in vivo. Particulars: CBD treated LMNA^G609G/G609G mice. On the procedure:
In the step of study the histology of mouse skin and liver, the mice were sacrificed by cervical dislocation under anesthesia by intraperitoneal (IP) injection of 100 mg/kg ketamine and 16 mg/kg xylazine in sterile water. Major organs, including skin, muscle, intestine, kidney, spleen, liver, lung, heart, aorta, were collected. Half of the tissues were snap-frozen in liquid nitrogen and stored at −80° C. for extraction of proteins and RNA. Another half of the tissues were fixed in 4% paraformaldehyde (PFA) in PBS and shook at 4° C. overnight. For paraffin wax sections, the fixed tissues were incubated in 70% ethanol and shook at 4° C. overnight. Followed by stepwise dehydration of tissues in 90%, 95%, 100%, and 100% ethanol for 1 hour each. Then the tissues were incubated in 50% xylene and 50% ethanol for 30 to 40 minutes and transferred to 100% xylene for 10 to 15 minutes. The tissues were then incubated in wax for 30 minutes and transferred to new wax for 3 times. Then the tissues were placed in the wax inside a vacuum chamber overnight. On the following day, the tissues were embedded into paraffin blocks and sectioned into slides with 6 μm in thickness. After the tissue sections were dried, they were incubated in xylene solution twice each for 5 minutes. […]

Test [3] deals with LMNA^G609G/G609G MEFs. Description: RNA sequencing of differentially expressed genes in MEFs. It counts as cell-based, mouse. Particulars: 10 μM CBD, 4 days. On the procedure:
Primary mouse embryonic fibroblasts (MEFs) at passage 3 were seeded and cultured in 10-cm dish and treated with CBD for 4 days. The cells were washed twice with ice-cold phosphate buffered saline (PBS), and 1 mL TRIzol was added. After incubation at room temperature for 5 minutes, the samples were collected into Eppendorf tubes. The supernatants were collected to Eppendorf tubes. 200 μl of chloroform was added to each sample, and the tubes were shaken vigorously by hand for 15 seconds. The samples were incubated at room temperature for 5 minutes and then centrifuged at 4° C. at 12000 rcf for 15 minutes. After centrifugation, the solution was separated into 3 layers. 450 μl of the clear top layer was collected, and 500 μl of isopropanol was added. […] The RNA quantitation was done using Nanodrop and Agilent 2100 Bioanalyzer. The RNA integrity was measured using Agilent 2100 Bioanalyzer. The RNA purity was measured using agarose gel electrophoresis and Agilent 2100 Bioanalyzer. […]
Illumina sequencing system was used for paired-end reads of read lengths PE150. […] The results were validated by quantitative polymerase chain reaction (qPCR). […] The concentration of RNA was measured by nanodrop. […] Then the samples were ready for qPCR. […] The delta-delta-ct value was calculated by the qPCR machine based on the signal of target genes normalized with housekeeping genes.

Test [4] has as its system p21, BCL-w, BCL-xL, MCL-1, TRIB3, p-akt in MSCs. Description: Western blotting in irradiated and non-irradiated MSCs. It counts as cell-based, human. The settings on record: 6-hour 10 μM CBD. On the procedure: FIG. 12a-b illustrates the results of senolytic effect of CBD in mesenchymal stem cells (MSCs) upon irradiation induced senescence.
The relative cell viability was calculated by normalizing each sample to non-irradiated control sample. […] As CBD selectively killed senescent MSCs while keeping proliferating MSCs unharmed, it was discovered to be a novel senolytic. Referring to FIG. 12b, Western blotting was carried to investigate the mechanism behind CBD's senolytic effect. […] While as proliferating and senescent MSCs responded differently in phosphorylated akt level.
On the technique in general: In western blotting, separated proteins are transferred to a membrane and probed.

Experimental findings from patent publication US20220354805A1, “Cannabidiol (CBD) as Chemical for Treating Aging-related Degenerative Diseases and Promoting Health Aging” (Hemix Biotech Limited, priority 2021, published 2022) are described below.

Structures are written as SMILES.

Regarding `C=C(C)[C@@H]1CCC(C)=C[C@H]1c1c(O)cc(CCCCC)cc1O` [CBD, Cannabidiol], the relative nuclear circularity entry in the test with LMNA^G609G/G609G MEFs [1] is reported as “significantly increased the relative nuclear circularity”. Besides, in test [2], the “increase of senescent cells in liver” value is reported as “rescued”. In addition, in the test with LMNA^G609G/G609G MEFs [3], the “differentially expressed genes restored to normal levels” value is 1066 out of 1363 and the “share of differentially expressed genes restored to normal levels” value stood at 78%. Further, in test [4] (irradiated MSCs), the BCL-w level result is “downregulated”, the BCL-xL level entry is “downregulated”, the MCL-1 level result is reported as “downregulated” and the p21 level result is listed as “significantly downregulated”. Besides, in test [4] (irradiated senescent MSCs), the “TRIB3 expression level (downregulated in senescent MSCs)” value is listed as “rescued”. Also, in test [4] (non-irradiated MSCs), the p-akt level result is given as “significantly upregulated”.
